Format in all cases: in vivo
The subject of one assay is Spodoptera frugiperda. Briefly: Spodoptera frugiperda spray test. The following applies: foliar, 168 h, 100 g/ha, maize leaf discs, after 7 days, read-out: efficacy (caterpillars killed). The method in brief:
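Compound was dissolved in acetone/dimethylformamide and diluted with water containing 1000 ppm alkylaryl polyglycol ether emulsifier to test concentrations. Maize leaf discs were sprayed, dried and infested with fall armyworm caterpillars. Efficacy (% caterpillars killed) was scored after 7 days.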

In a further assay the test system is Phaedon cochleariae. Briefly: Phaedon cochleariae spray test. The following applies: foliar, 168 h, 100 g/ha, Chinese cabbage leaf discs, after 7 days, read-out: efficacy (beetle larvae killed). The protocol: Phaedon cochleariae—Spray Test Solvent: 78.0 parts by weight of acetone • • 1.5 parts by weight of dimethylformamide Emulsifier: alkylaryl polyglycol ether
To produce a suitable active compound formulation, 1 part by weight of active compound is dissolved using the stated parts by weight of solvent and made up with water containing an emulsifier concentration of 1000 ppm until the desired concentration is attained. To produce further test concentrations, the formulation is diluted with emulsifier-containing water.
Discs of Chinese cabbage leaves (Brassica pekinensis) are sprayed with an active compound formulation of the desired concentration and, after drying, populated with larvae of the mustard beetle (Phaedon cochleariae).
After 7 days, the efficacy in % is determined. 100% means that all the beetle larvae have been killed; 0% means that no beetle larvae have been killed.

The next assay concerns Meloidogyne incognita. The assay can be described thus: Meloidogyne incognita test. The following applies: 336 h, lettuce, after 14 days, read-out: nematicidal efficacy (formation of galls). The protocol: Meloidogyne incognita Test Solvent: 125.0 parts by weight of acetone
To produce a suitable active compound formulation, 1 part by weight of active compound is mixed with the stated amount of solvent and the concentrate is diluted to the desired concentration with water.
Vessels are filled with sand, active compound solution, an egg/larvae suspension of the southern root-knot nematode (Meloidogyne incognita) and lettuce seeds. The lettuce seeds germinate and the plants develop. The galls develop on the roots.
After 14 days, the nematicidal efficacy in % is determined by the formation of galls. 100% means that no galls were found; 0% means that the number of galls on the treated plants corresponds to the untreated control.

The subject of assay [1] is Ctenocephalides felis. The assay can be described thus: Ctenocephalides felis oral test. The following applies: 48 h, 100 ppm in citrated cattle blood, adult cat fleas, after 2 days, read-out: efficacy (kill). Here is the method: Ctenocephalides felis—Oral Test
Solvent: Dimethyl Sulfoxide
To produce a suitable active compound formulation, 10 mg of active compound are mixed with 0.5 ml of dimethyl sulfoxide. Dilution with citrated cattle blood gives the desired concentration.
About 20 unfed adult cat fleas (Ctenocephalides felis) are placed into a chamber which is closed at the top and bottom with gauze. A metal cylinder whose bottom end is closed with parafilm is placed onto the chamber. The cylinder contains the blood/active compound formulation, which can be imbibed by the fleas through the parafilm membrane.
After 2 days, the kill in % is determined. 100% means that all of the fleas have been killed; 0% means that none of the fleas have been killed.

In the next assay the test system is Diabrotica balteata. The assay can be described thus: Diabrotica balteata spray test. The following applies: 168 h, beetle larvae on wheat, after 7 days, read-out: efficacy (wheat plant growth); for pest or weed control at 100 g/ha: 100 g/ha (=32 μg/cavity); for pest or weed control at 125 g/ha: 125 g/ha (=40 μg/cavity); for pest or weed control at 500 g/ha: 500 g/ha (=160 μg/cavity). Put shortly: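 Germinated wheat seedlings in agar multiwell plates were sprayed with compound in acetone/DMF with emulsifier-containing water, then infested with 10-20 Diabrotica balteata larvae. After 7 days, efficacy (%) scored by plant growth: 100% equals untreated, uninfested control, 0% no plants grown.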

For assay [2], the system named is Ctenocephalides felis. Briefly: Ctenocephalides felis in vitro contact test with adult cat fleas. The note with it: 5 μg/cm^2 (=500 g of ai/ha), after 48 h, read-out: efficacy (fleas dead or moribund). Here is the method:
Ctenocephalides felis—In Vitro Contact Tests with Adult Cat Fleas
For the coating of the test tubes, 9 mg of active compound are first dissolved in 1 ml of acetone p.a. and then diluted to the desired concentration with acetone p.a. 250 μl of the solution are distributed homogeneously on the inner walls and the base of a 25 ml glass tube by turning and rocking on an orbital shaker (rocking rotation at 30 rpm for 2 h). With 900 ppm of active compound solution and internal surface area 44.7 cm^2, given homogeneous distribution, an area-based dose of 5 μg/cm^2 is achieved.
After the solvent has evaporated off, the tubes are populated with 5-10 adult cat fleas (Ctenocephalides felis), sealed with a perforated plastic lid and incubated in a horizontal position at room temperature and ambient humidity. After 48 h, efficacy is determined. To this end, the tubes are stood upright and the fleas are knocked to the base of the tube. Fleas which remain motionless at the base or move in an uncoordinated manner are considered to be dead or moribund.
100% efficacy means that all the fleas were dead or moribund. 0% efficacy means that no fleas were harmed.

The values below come from patent publication US20220289691A1, “5-AMINO-SUBSTITUTED PYRAZOLES AND TRIAZOLES AS PEST CONTROL AGENTS” (Bayer Aktiengesellschaft, priority 2019, published 2022).

The structures appear in SMILES notation.

Turning to `CC(=O)Nc1nc(-c2ccc(C(C)=NNC(=S)Nc3ccccc3C(C)C)cc2)nn1-c1ccc(OC(F)(F)F)cc1` [Compound I-017], the pest or weed control at 100 g/ha with Spodoptera frugiperda and in the assay on Phaedon cochleariae was 100% throughout. In addition, the pest or weed control at 20 ppm with Meloidogyne incognita amounted to 90%. In addition, the pest or weed control at 100 ppm in the assay on Ctenocephalides felis [1] was 95%.

As to `CNc1nc(-c2cc(F)c(C=NNC(=S)Nc3ccccc3C(C)C)c(F)c2)nn1-c1ccc(OC(F)(F)F)cc1` [Compound I-107], the pest or weed control at 100 g/ha in the assay on Spodoptera frugiperda and in the assay on Diabrotica balteata was 100% each time. Besides, the pest or weed control at 20 ppm in the assay on Meloidogyne incognita was determined as 90%.

As to `CC(C)Nc1nc(-c2ccc(C=NNC(=S)Nc3ccccc3C(C)C)cc2)nn1-c1ccc(OC(F)(F)F)cc1` [Compound I-052], the pest or weed control at 100 g/ha with Spodoptera frugiperda and in the assay with Diabrotica balteata was 100% each time. Moreover, the pest or weed control at 20 ppm with Meloidogyne incognita stood at 100%.

With `CNc1nc(-c2ccc(C=NNC(=S)Nc3ccccc3C(C)C)cc2Cl)nn1-c1ccc(OC(F)(F)F)cc1` [Compound I-108], the pest or weed control at 100 g/ha with Spodoptera frugiperda and with Diabrotica balteata was 100% in each case. Moreover, the pest or weed control at 20 ppm in the assay with Meloidogyne incognita was 90%.

On to `CNc1nc(-c2ccc(C=NN=c3scc(C)n3-c3ccccc3C(C)C)cc2)nn1-c1ccc(OC(F)(F)F)cc1` [Compound I-097, 3-[4-({[3-(2-isopropylphenyl)-4-methyl-1,3-thiazol-2(3H)-ylidene]hydrazono}methyl)phenyl]-N-methyl-1-[4-(trifluoromethoxy)phenyl]-1H-1,2,4-triazol-5-amine], for which the pest or weed control at 100 g/ha came out at 83% in the assay with Spodoptera frugiperda and 100% with Diabrotica balteata. In the assay with Ctenocephalides felis [2], the pest or weed control at 5 µg/cm2 came to 100%.

As to `CC(=O)Nc1nc(-c2ccc(C=NN=C3SCC(=O)N3c3ccccc3C(C)C)cc2)nn1-c1ccc(OC(F)(F)F)cc1` [Compound I-032], in the assay with Spodoptera frugiperda, the pest or weed control at 100 g/ha came to 100%. Further, the pest or weed control at 5 µg/cm2 in the assay on Ctenocephalides felis [2] is 80%. For the same compound, in the assay on Diabrotica balteata, the pest or weed control at 125 g/ha stood at 100% and the pest or weed control at 500 g/ha was found to be 100%.

For the compound `CNc1nc(-c2ccc(C=NNC(=S)Nc3ccccc3C(C)C)c(F)c2)nn1-c1ccc(OC(F)(F)F)cc1` [Compound I-104], the pest or weed control at 100 g/ha in the assay on Spodoptera frugiperda and in the assay on Diabrotica balteata was 100% throughout. In addition, the pest or weed control at 20 ppm in the assay on Meloidogyne incognita is 90%.

As for `CC(=O)Nc1nc(-c2ccc(C(C)=NNC(=S)Nc3c(C)cccc3C)cc2)nn1-c1ccc(OC(F)(F)F)cc1` [Compound I-015], the pest or weed control at 100 g/ha is 100% with Spodoptera frugiperda and 83% in the assay with Phaedon cochleariae. Also, the pest or weed control at 100 ppm in the assay on Ctenocephalides felis [1] amounted to 100%.

Take `CNc1nc(-c2ccc(C=NNC(=S)Nc3ccccc3C(C)C)cc2F)nn1-c1ccc(OC(F)(F)F)cc1` [Compound I-109]: the pest or weed control at 100 g/ha in the assay with Spodoptera frugiperda and in the assay with Diabrotica balteata was 100% in each case. Also, the pest or weed control at 20 ppm with Meloidogyne incognita amounted to 90%.

For `CNc1nc(-c2ccc(C=NN=C3SCC(=O)N3c3cc(OC)ccc3C(C)C)cc2)nn1-c1ccc(OC(F)(F)F)cc1` [Compound I-090], the pest or weed control at 100 g/ha in the assay with Spodoptera frugiperda and with Diabrotica balteata was 100% each time. In the assay on Ctenocephalides felis [2], the pest or weed control at 5 µg/cm2 was determined as 100%.

For `CNc1nc(-c2ccc(NC(=O)N=C3SCC(=O)N3c3cc(C)ccc3C(C)C)cc2)nn1-c1ccc(OC(F)(F)C(F)(F)F)cc1` [Compound I-079], the pest or weed control at 100 g/ha in the assay with Spodoptera frugiperda and in the assay with Diabrotica balteata was 100% in each case. The pest or weed control at 5 µg/cm2 with Ctenocephalides felis [2] was 100%.

For `CC(C)c1ccccc1NC(=S)NN=Cc1ccc(-c2nc(NC3CC3)n(-c3ccc(OC(F)(F)F)cc3)n2)cc1` [Compound I-051], in the assay on Spodoptera frugiperda, the pest or weed control at 100 g/ha turned out to be 100%. In the assay with Diabrotica balteata, the pest or weed control at 100 g/ha is 100% and the pest or weed control at 500 g/ha came out at 100%. Further, the pest or weed control at 20 ppm in the assay on Meloidogyne incognita is 90%.

Consider `CNc1nc(-c2ccc(C=NN=C3SCC(=O)N3c3ccccc3C(C)C)c(F)c2)nn1-c1ccc(OC(F)(F)F)cc1` [Compound I-105], for which the pest or weed control at 100 g/ha in the assay on Spodoptera frugiperda and in the assay on Diabrotica balteata was 100% each time. Further, the pest or weed control at 20 ppm in the assay on Meloidogyne incognita came to 90%.

As to `CC(C)c1ccccc1N1C(=O)CSC1=NN=Cc1ccc(-c2nc(N)n(-c3ccc(OC(F)(F)F)cc3)n2)cc1` [Compound I-056], the pest or weed control at 100 g/ha in the assay with Spodoptera frugiperda was 100%. For the same compound, in the assay on Diabrotica balteata, the pest or weed control at 100 g/ha was found to be 100% and the pest or weed control at 500 g/ha was found to be 100%. The pest or weed control at 20 ppm in the assay on Meloidogyne incognita was found to be 90%.

For `CCC(=O)Nc1nc(-c2ccc(C(C)=NNC(=S)Nc3ccccc3C(C)C)cc2)nn1-c1ccc(OC(F)(F)F)cc1` [Compound I-016], the pest or weed control at 100 g/ha with Spodoptera frugiperda and with Phaedon cochleariae was 100% throughout. Besides, the pest or weed control at 100 ppm in the assay with Ctenocephalides felis [1] turned out to be 95%.

For `CNc1nc(-c2ccc(C=NN=C3SCCCN3c3ccccc3C(C)C)cc2)nn1-c1ccc(OC(F)(F)F)cc1` [Compound I-117], the pest or weed control at 100 g/ha in the assay with Spodoptera frugiperda and in the assay with Diabrotica balteata was 100% throughout. Moreover, in the assay on Ctenocephalides felis [2], the pest or weed control at 5 µg/cm2 was determined as 100%.

For `CCNc1nc(-c2ccc(C=NN=C3SCC(=O)N3c3ccccc3C(C)C)cc2)nn1-c1ccc(OC(F)(F)F)cc1` [Compound I-047], in the assay with Meloidogyne incognita, the pest or weed control at 20 ppm was 90%.

For `CC(=O)Nc1nc(-c2ccc(C=NNC(=S)Nc3ccccc3C(C)C)cc2)nn1-c1ccc(OC(F)(F)F)cc1` [Compound I-009], the pest or weed control at 100 g/ha in the assay with Spodoptera frugiperda and with Phaedon cochleariae was 100% throughout. Further, in the assay with Ctenocephalides felis [2], the pest or weed control at 5 µg/cm2 stood at 100%. Besides, the pest or weed control at 100 ppm with Ctenocephalides felis [1] came out at 100%.

Consider `CC(=O)Nc1nc(-c2ccc(C=NNC(=S)Nc3ccccc3C)cc2)nn1-c1ccc(OC(F)(F)F)cc1` [Compound I-010], for which the pest or weed control at 100 g/ha in the assay with Spodoptera frugiperda and in the assay with Phaedon cochleariae was 100% throughout. Moreover, the pest or weed control at 100 ppm in the assay with Ctenocephalides felis [1] came out at 100%.

`CC(C)Nc1nc(-c2ccc(C=NN=C3SCC(=O)N3c3ccccc3C(C)C)cc2)nn1-c1ccc(OC(F)(F)F)cc1` [Compound I-048]: in the assay with Meloidogyne incognita, the pest or weed control at 20 ppm is 90%.

In the case of `CNc1nc(-c2ccc(NC(=O)N=C3SCC(=O)N3c3cc(OC)ccc3C(C)C)cc2)nn1-c1ccc(OC(F)(F)C(F)(F)F)cc1` [Compound I-083], the pest or weed control at 100 g/ha with Spodoptera frugiperda and in the assay with Diabrotica balteata was 100% throughout. For the same compound, the pest or weed control at 5 µg/cm2 with Ctenocephalides felis [2] is 90%.

`CCN(CC)c1nc(-c2ccc(C=NNC(=S)Nc3ccccc3C(C)C)cc2)nn1-c1ccc(OC(F)(F)F)cc1` [Compound I-020]: the pest or weed control at 100 g/ha in the assay with Spodoptera frugiperda is 100%. Besides, in the assay on Diabrotica balteata, the pest or weed control at 125 g/ha was 80% and the pest or weed control at 500 g/ha came out at 100%. For the same compound, the pest or weed control at 20 ppm in the assay on Meloidogyne incognita came to 100%.

For the compound `CNc1nc(-c2cc(F)c(C=NN=C3SCC(=O)N3c3ccccc3C(C)C)cc2F)nn1-c1ccc(OC(F)(F)F)cc1` [Compound I-111], the pest or weed control at 100 g/ha with Spodoptera frugiperda and with Diabrotica balteata was 100% in each case. Moreover, the pest or weed control at 20 ppm in the assay with Meloidogyne incognita was 100%.

Take `CC(C)c1ccccc1NC(=S)NN=Cc1ccc(-c2nc(NC(=O)C3CC3)n(-c3ccc(OC(F)(F)F)cc3)n2)cc1` [Compound I-013]: the pest or weed control at 100 g/ha in the assay on Spodoptera frugiperda and with Phaedon cochleariae was 100% in each case. Further, the pest or weed control at 100 ppm with Ctenocephalides felis [1] turned out to be 100%.
